Data from paper PMC10927987, “Biochemical characterization, structure-guided mutagenesis, and application of a recombinant D-allulose 3-epimerase from Christensenellaceae bacterium for the biocatalytic production of D-allulose” (Frontiers in Bioengineering and Biotechnology, 2024).

System: T1, CbDAE
T1 construct: codon-optimized gene in pET-28a(+) (NdeI/EcoRI), E. coli BL21(DE3), Ni-NTA purified, His tag; mutagenesis template given as pET22b-CbDAE
Assay: epimerization, HPLC-RI, Michaelis-Menten fit
Type: biochemical, Christensenellaceae bacterium
Details: standard reaction conditions: 1 mM Co2+, 60 °C, 10 min; 5-300 mM substrate
Description: epimerization, HPLC-RI, Michaelis-Menten fit on CbDAE

SMILES	Km [mM]
OCC1(O)OC[C@@H](O)[C@@H](O)[C@H]1O (stereo partly drawn) [D-allulose]	44.9 ± 5.1
OCC1(O)OC[C@@H](O)[C@H](O)[C@H]1O (stereo partly drawn) [D-sorbose]	61.6 ± 4.8
OCC1(O)OC[C@@H](O)[C@H](O)[C@@H]1O (stereo partly drawn) [D-tagatose]	52.7 ± 6.2
